# Biological target: PI3K-alpha (Homo sapiens (Human), UniProt P42336)
# Test: HTRF PI3K biochemical assay, alpha isoform
# Details: ratio PI3K-alpha IC50 value/PI3K-delta IC50 value
# Chain of PI3K-alpha (P42336 whole entry, looked up, canonical isoform): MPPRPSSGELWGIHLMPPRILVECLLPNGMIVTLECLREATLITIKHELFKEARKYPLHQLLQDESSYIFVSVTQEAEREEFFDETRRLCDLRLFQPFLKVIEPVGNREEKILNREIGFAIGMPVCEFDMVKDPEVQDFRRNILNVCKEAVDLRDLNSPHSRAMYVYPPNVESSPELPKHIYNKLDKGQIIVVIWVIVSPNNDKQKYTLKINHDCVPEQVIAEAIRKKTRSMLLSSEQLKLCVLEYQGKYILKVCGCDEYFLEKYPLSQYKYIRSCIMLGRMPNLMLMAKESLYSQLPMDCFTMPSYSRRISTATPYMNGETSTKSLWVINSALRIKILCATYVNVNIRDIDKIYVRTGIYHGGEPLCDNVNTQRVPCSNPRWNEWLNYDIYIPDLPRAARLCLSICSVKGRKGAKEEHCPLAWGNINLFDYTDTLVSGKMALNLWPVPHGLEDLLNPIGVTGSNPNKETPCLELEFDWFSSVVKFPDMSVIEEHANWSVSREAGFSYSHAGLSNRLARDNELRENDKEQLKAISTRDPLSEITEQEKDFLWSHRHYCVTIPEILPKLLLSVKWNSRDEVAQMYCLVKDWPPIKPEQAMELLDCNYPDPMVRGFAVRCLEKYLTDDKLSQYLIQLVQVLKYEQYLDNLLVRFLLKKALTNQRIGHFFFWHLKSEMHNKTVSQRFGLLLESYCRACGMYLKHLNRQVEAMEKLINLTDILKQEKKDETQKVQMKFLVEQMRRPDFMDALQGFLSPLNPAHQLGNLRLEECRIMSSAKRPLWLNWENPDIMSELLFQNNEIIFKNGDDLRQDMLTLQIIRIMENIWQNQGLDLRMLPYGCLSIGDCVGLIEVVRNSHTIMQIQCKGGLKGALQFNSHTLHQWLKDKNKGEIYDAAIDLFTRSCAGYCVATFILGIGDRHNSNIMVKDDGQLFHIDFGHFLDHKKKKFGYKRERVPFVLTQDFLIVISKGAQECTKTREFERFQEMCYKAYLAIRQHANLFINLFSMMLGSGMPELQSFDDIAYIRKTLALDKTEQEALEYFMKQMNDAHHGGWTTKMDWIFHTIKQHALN
# Chain of PI3K-alpha (P27986 whole entry partner, looked up, canonical isoform): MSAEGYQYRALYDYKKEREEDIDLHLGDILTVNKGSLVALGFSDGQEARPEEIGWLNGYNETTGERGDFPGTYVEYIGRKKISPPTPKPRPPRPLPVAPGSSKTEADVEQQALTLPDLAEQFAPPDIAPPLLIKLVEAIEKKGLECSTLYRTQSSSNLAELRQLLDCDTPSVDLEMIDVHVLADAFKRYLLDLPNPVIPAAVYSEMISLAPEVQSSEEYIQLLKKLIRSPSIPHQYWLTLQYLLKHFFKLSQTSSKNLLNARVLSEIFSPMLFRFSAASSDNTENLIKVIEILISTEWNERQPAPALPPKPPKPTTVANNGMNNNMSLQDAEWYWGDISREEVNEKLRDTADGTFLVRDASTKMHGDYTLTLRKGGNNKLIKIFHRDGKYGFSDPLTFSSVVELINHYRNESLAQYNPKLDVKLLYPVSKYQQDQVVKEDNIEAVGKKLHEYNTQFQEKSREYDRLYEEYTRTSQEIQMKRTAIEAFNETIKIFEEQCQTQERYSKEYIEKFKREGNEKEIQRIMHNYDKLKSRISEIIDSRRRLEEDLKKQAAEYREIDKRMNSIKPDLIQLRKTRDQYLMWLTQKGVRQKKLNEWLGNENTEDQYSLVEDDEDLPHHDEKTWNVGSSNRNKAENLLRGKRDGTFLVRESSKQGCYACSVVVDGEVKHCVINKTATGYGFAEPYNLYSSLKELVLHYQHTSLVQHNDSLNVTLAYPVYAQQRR
row,Structure (SMILES),Relative Selectivity versus PI3Kalpha
1,"CCn1c(-c2cnc(C)nc2)nc2c(O[C@H]3CCN(C(=O)[C@H]4CCC[C@H]4N)C3)ncnc21 [Compound 2-103, (1R,2S)-2-{[(3S)-3-{[9-ethyl-8-(2-methylpyrimidin-5-yl)-9H-purin-6-yl]oxy}pyrrolidin-1-yl]carbonyl}cyclopentanamine]",>10
2,"CCn1c(-c2cnc(C)nc2)nc2c(O[C@H]3CCN(C(=O)[C@@H]4CN5CC[C@H]4C5)C3)ncnc21 [Compound 2-104, 6-({(3S)-1-[(3S,4R)-1-azabicyclo[2.2.1]hept-3-ylcarbonyl]pyrrolidin-3-yl}oxy)-9-ethyl-8-(2-methylpyrimidin-5-yl)-9H-purine]",>10
3,"CCn1ncc(-c2nc3c(O[C@H]4CCN(C(=O)C5CCC5)C4)ncnc3n2C)c1C [Compound 2-105, 6-{[(3S)-1-(cyclobutylcarbonyl)pyrrolidin-3-yl]oxy}-8-(1-ethyl-5-methyl-1H-pyrazol-4-yl)-9-methyl-9H-purine]",>10
4,"CCn1ncc(-c2nc3c(O[C@H]4CCN(C(=O)C5CC(F)(F)C5)C4)ncnc3n2C)c1C [Compound 2-106, 6-({(3S)-1-[(3,3-difluorocyclobutyl)carbonyl]pyrrolidin-3-yl}oxy)-8-(1-ethyl-5-methyl-1H-pyrazol-4-yl)-9-methyl-9H-purine]",>10
5,"CCn1c(-c2cnc(C)nc2)nc2c(O[C@H]3CCN(C(=O)C4CC4)C3)ncnc21 [Compound 2-107, 6-{[(3S)-1-(cyclopropylcarbonyl)pyrrolidin-3-yl]oxy}-9-ethyl-8-(2-methylpyrimidin-5-yl)-9H-purine]",>10
6,"CCn1c(-c2cnc(C)nc2)nc2c(O[C@H]3CCN(C(=O)C4CC4C)C3)ncnc21 (stereo partly drawn) [Compound 2-108, 9-ethyl-6-({(3S)-1-[(2-methylcyclopropyl)carbonyl]pyrrolidin-3-yl}oxy)-8-(2-methylpyrimidin-5-yl)-9H-purine]",>10
7,"CCn1c(-c2cnc(C)nc2)nc2c(O[C@H]3CCN(C(=O)c4ccn(C)n4)C3)ncnc21 [Compound 2-109, 9-ethyl-6-({(3S)-1-[(1-methyl-1H-pyrazol-3-yl)carbonyl]pyrrolidin-3-yl}oxy)-8-(2-methylpyrimidin-5-yl)-9H-purine]",>10
8,"CCn1c(-c2cnc(C)nc2)nc2c(O[C@H]3CCN(C(=O)[C@H]4C[C@H]5CC[C@@H]4C5)C3)ncnc21 [Compound 2-110, 6-({(3S)-1-[(1R,2S,4S)-bicyclo[2.2.1]hept-2-ylcarbonyl]pyrrolidin-3-yl}oxy)-9-ethyl-8-(2-methylpyrimidin-5-yl)-9H-purine]",>10
9,"CCn1c(-c2cnc(C)nc2)nc2c(O[C@H]3CCN(C(=O)[C@@H](N)C(C)C)C3)ncnc21 [Compound 2-111, (2S)-1-[(3S)-3-{[9-ethyl-8-(2-methylpyrimidin-5-yl)-9H-purin-6-yl]oxy}pyrrolidin-1-yl]-3-methyl-1-oxobutan-2-amine]",>10
10,"CCn1c(-c2cnc(C)nc2)nc2c(O[C@H]3CCN(C(=O)C4(N)CCC4)C3)ncnc21 [Compound 2-112, 1-{[(3S)-3-{[9-ethyl-8-(2-methylpyrimidin-5-yl)-9H-purin-6-yl]oxy}pyrrolidin-1-yl]carbonyl}cyclobutanamine]",>10
11,"CCn1c(-c2cnc(C)nc2)nc2c(O[C@H]3CCN(C(=O)C4CCOC4)C3)ncnc21 (stereo partly drawn) [Compound 2-113, 9-ethyl-8-(2-methylpyrimidin-5-yl)-6-{[(3S)-1-(tetrahydrofuran-3-ylcarbonyl)pyrrolidin-3-yl]oxy}-9H-purine]",>10
12,"CCn1c(-c2cnc(C)nc2)nc2c(O[C@H]3CCN(C(=O)CC(C)(C)N)C3)ncnc21 [Compound 2-114, 4-[(3S)-3-{[9-ethyl-8-(2-methylpyrimidin-5-yl)-9H-purin-6-yl]oxy}pyrrolidin-1-yl]-2-methyl-4-oxobutan-2-amine]",>10
13,"CCn1c(-c2cnc(C)nc2)nc2c(O[C@H]3CCN(C(=O)C=C(C)C)C3)ncnc21 [Compound 2-116, 9-ethyl-6-{[(3S)-1-(3-methylbut-2-enoyl)pyrrolidin-3-yl]oxy}-8-(2-methylpyrimidin-5-yl)-9H-purine]",>10
14,"CCn1c(-c2cnc(C)nc2)nc2c(O[C@H]3CCN(C(=O)C4[C@@H](C)[C@@H]4C)C3)ncnc21 (stereo partly drawn) [Compound 2-121, 6-({(3S)-1-[(2S,3S)-(2,3-dimethylcyclopropyl)carbonyl]pyrrolidin-3-yl}oxy)-9-ethyl-8-(2-methylpyrimidin-5-yl)-9H-purine]",>10
15,CCn1c(-c2cnc(C)nc2)nc2c(O[C@H]3CCN(C(=O)C4C(C)C4C)C3)ncnc21 (stereo partly drawn) [Compound 2-128],>10
16,"CCn1c(-c2cnc(C)nc2)nc2c(O[C@H]3CCN(C(=O)C4CC(C)C4)C3)ncnc21 (stereo partly drawn) [Compound 2-129, 9-ethyl-6-({(3S)-1-[(3-methylcyclobutyl)carbonyl]pyrrolidin-3-yl}oxy)-8-(2-methylpyrimidin-5-yl)-9H-purine]",>10
17,"CCn1c(-c2cnc(C)nc2)nc2c(O[C@H]3CCN(C(=O)c4cocn4)C3)ncnc21 [Compound 2-136, 9-ethyl-8-(2-methylpyrimidin-5-yl)-6-{[(3S)-1-(1,3-oxazol-4-ylcarbonyl)pyrrolidin-3-yl]oxy}-9H-purine]",>10

row,Structure (SMILES),Relative Selectivity versus PI3Kalpha
1,"CCn1c(-c2cnc(C)nc2)nc2c(OC3(C)CCN(C(=O)C4CC4)C3)ncnc21 (stereo not drawn) [Compound 2-141, 6-{[1-(cyclopropylcarbonyl)-3-methylpyrrolidin-3-yl]oxy}-9-ethyl-8-(2-methylpyrimidin-5-yl)-9H-purine]",>10
2,"CCn1c(-c2ccc(OC(F)(F)F)cc2)nc2c(O[C@H]3CCN(C(=O)C4CC4)C3)ncnc21 [Compound 2-142, 6-{[(3S)-1-(cyclopropylcarbonyl)pyrrolidin-3-yl]oxy}-9-ethyl-8-[4-(trifluoromethoxy)phenyl]-9H-purine]",>10
3,"CCn1c(-c2ccc(OC)nc2)nc2c(O[C@H]3CCN(C(=O)C4CC4)C3)ncnc21 [Compound 2-143, 6-{[(3S)-1-(cyclopropylcarbonyl)pyrrolidin-3-yl]oxy}-9-ethyl-8-(6-methoxypyridin-3-yl)-9H-purine]",>10
4,"CCn1c(-c2ccnc(OC)c2)nc2c(O[C@H]3CCN(C(=O)C4CC4)C3)ncnc21 [Compound 2-144, 6-{[(3S)-1-(cyclopropylcarbonyl)pyrrolidin-3-yl]oxy}-9-ethyl-8-(2-methoxypyridin-4-yl)-9H-purine]",>10
5,"CCn1c(-c2ccc(C(F)(F)F)nc2)nc2c(O[C@H]3CCN(C(=O)C4CC4)C3)ncnc21 [Compound 2-145, 6-{[(3S)-1-(cyclopropylcarbonyl)pyrrolidin-3-yl]oxy}-9-ethyl-8-[6-(trifluoromethyl)pyridin-3-yl]-9H-purine]",>10
6,"CCn1c(-c2ccc(C(F)(F)F)cc2)nc2c(O[C@H]3CCN(C(=O)C4CC4)C3)ncnc21 [Compound 2-146, 6-{[(3S)-1-(cyclopropylcarbonyl)pyrrolidin-3-yl]oxy}-9-ethyl-8-[4-(trifluoromethyl)phenyl]-9H-purine]",>10
7,"CCn1c(-c2ccc(OC(F)F)nc2)nc2c(O[C@H]3CCN(C(=O)C4CC4)C3)ncnc21 [Compound 2-147, 6-{[(3S)-1-(cyclopropylcarbonyl)pyrrolidin-3-yl]oxy}-8-[6-(difluoromethoxy)pyridin-3-yl]-9-ethyl-9H-purine]",>10
8,"CCC(=O)N1CC[C@H](Oc2ncnc3c2nc(-c2ccc4cn[nH]c4c2)n3C)C1 [Compound 3-1, (S)-1-(3-((8-(1H-indazol-6-yl)-9-methyl-9H-purin-6-yl)oxy)pyrrolidin-1-yl)propan-1-one]",>10
9,"CCC(=O)N1CC[C@H](Oc2ncnc3c2nc(-c2ccc(C(F)(F)F)nc2)n3C)C1 [Compound 3-2, (S)-1-(3-((9-methyl-8-(6-(trifluoromethyl)pyridin-3-yl)-9H-purin-6-yl)oxy)pyrrolidin-1-yl)propan-1-one]",>10
10,"CCC(=O)N1CC[C@H](Oc2ncnc3c2nc(-c2cnc4[nH]ccc4c2)n3C)C1 [Compound 3-3, (S)-1-(3-((9-methyl-8-(1H-pyrrolo[2,3-b]pyridin-5-yl)-9H-purin-6-yl)oxy)pyrrolidin-1-yl)propan-1-one]",>10
11,"CCC(=O)N1CC[C@H](Oc2ncnc3c2nc(-c2ccc4cc[nH]c4c2)n3C)C1 [Compound 3-4, (S)-1-(3-((8-(1H-indol-6-yl)-9-methyl-9H-purin-6-yl)oxy)pyrrolidin-1-yl)propan-1-one]",>10
12,"CCC(=O)N1CC[C@H](Oc2ncnc3c2nc(-c2ccc4[nH]ncc4c2)n3C)C1 [Compound 3-5, (S)-1-(3-((8-(1H-indazol-5-yl)-9-methyl-9H-purin-6-yl)oxy)pyrrolidin-1-yl)propan-1-one]",>10
13,"CCC(=O)N1CC[C@H](Oc2ncnc3c2nc(-c2cnc(OC)c(C(F)(F)F)c2)n3C)C1 [Compound 3-6, (S)-1-(3-((8-(6-methoxy-5-(trifluoromethyl)pyridin-3-yl)-9-methyl-9H-purin-6-yl)oxy)pyrrolidin-1-yl)propan-1-one]",>10
14,"CCC(=O)N1CC[C@H](Oc2ncnc3c2nc(-c2ccc4[nH]ccc4c2)n3C)C1 [Compound 3-7, (S)-1-(3-((8-(1H-indol-5-yl)-9-methyl-9H-purin-6-yl)oxy)pyrrolidin-1-yl)propan-1-one]",>10
15,"CCC(=O)N1CC[C@H](Oc2ncnc3c2nc(-c2ccc(C)nc2)n3C)C1 [Compound 3-8, (S)-1-(3-((9-methyl-8-(6-methylpyridin-3-yl)-9H-purin-6-yl)oxy)pyrrolidin-1-yl)propan-1-one]",>10
16,"CCC(=O)N1CC[C@H](Oc2ncnc3c2nc(-c2cc(O)cc(F)c2)n3C)C1 [Compound 3-9, 3-fluoro-5-(9-methyl-6-{[(3S)-1-propanoylpyrrolidin-3-yl]oxy}-9H-purin-8-yl)phenol]",>10

# — patent US9730940B2, “Purine inhibitors of human phosphatidylinositol 3-kinase delta” (priority 2012, dated 2017)
